Test results: US7011834B1, “Immunomodulating dimers” (The Board of Trustees of Leland Stanford Junior University, priority 1987, dated 2006)

How the values were obtained:
[1] = test system: CD8+CTL line specific for HLA-A2; assay: Cytotoxicity assay: inhibition of lysis by established CTL, 51Cr-labeled JY targets; format: cell-based, human; conditions: JY targets; for % Specific Lysis: cell ratio 1:1, CTL line AJY
Experimental: Cytotoxicity Assay. CTL assays were performed as described using ^51Cr-labeled EBV transformed B cells expressing the appropriate HLA allele as targets [[…] et al., J. Immunol. (1982) 129:2001]. In the present protocol, a CD8+CTL line specific for HLA-A2 was tested in the presence of various peptides for lysis of ^51Cr-labeled JY targets. Peptides were added to a final concentration of 100 μg/ml at the initiation of the 4 h assay. Each determination was the mean of triplicate wells. […] In these determinations, inhibition of cytolysis, as described above, employed the CTL cell line AJY, a long term CD8+CTL line specific for HLA-A2 and the target cell was the B-lymphoblastoid cell line JY (HLA-A2, B7). The cytotoxicity assay was performed as described by Clayberger et al., J. Exp. Med. (1984) 162:1709-1714; and Reiss et al., Proc Natl Acad Sci USA (1980) 77:5432-5436. The peptides were preincubated for 30 min with 1-3×10^3 CTLs before addition of 10^3 51Cr-labeled B-lymphoblastoid target cells. The results are reported for varying concentrations of the peptide with varying ratios of the two cell lines.

PBL from normal donors = assay: PBL proliferation with Conagglutinin A, 3H-thymidine incorporation; format: cell-based, human; conditions: approximate, purity not established
Experimental: To measure the effect of D-substitutions on proliferation, PBL from normal donors were cultured at 5×10^5 cells/round bottom microtiter well in RPMI-1640 supplemented with 10% fetal bovine serum and L-glutamine. Cultures were supplemented with Conagglutinin A. Cells were incubated at 37° C. for three days at which point ^3H-thymidine (1 μCi/well) was added. After 24 hours, wells were harvested and ^3H-thymidine incorporation determined by scintillation counter.

rat splenocytes = assay: Differentiation of rat splenocytes into allospecific CTL in vitro; format: cell-based; conditions: initial studies
Experimental: Therefore, we tested whether splenocytes obtained from rats treated with the peptides in vivo could differentiate into CTL ex vivo. In preliminary studies, the half-life of the B7.75-84 peptide was determined to be 2–3 hours in rats.

cardiac allograft = assay: Heterotopic cardiac allograft survival, Lew donor to ACI recipient; format: in vivo, rat; conditions: peptide in two weeks before or 4 days after surgery plus CsA on days 0–4
Excerpt: Vascularized cardiac allografts were heterotypically transplanted into the abdomen of recipient rats using a modification of the technique of Ono and Lindsay (Ono and Lindsey J. Thorac. Cardiovasc. Surg. (1969) 57:225). Abdominal allografts were palpated on a daily basis to assess graft function, and rejection was deemed complete when palpable ventricular contractions ceased.
Cyclosporin A (CsA, Sandoz Pharmaceuticals Corporation, Base, Switzerland) dissolved in olive oil was given orally through a gavage tube at the indicated dose. Peptides were dissolved in water or saline and given intravenously or by gavage as indicated.
Since the B7.75-84 and B2702.75-84 peptides blocked cellular immunity in vivo, we examined their effects on allograft survival in rats. ACI (RT1^a) recipients were given abdominal heterotopic heart allografts from Lew donors (Moeller et al. 1993, supra; Ono and Lindsey. 1969, supra). Graft function was monitored by daily abdominal palpation, and rejection was scored as complete when the palpable ventricular contractions ceased.

[2] = test system: CD8+CTL line specific for HLA-A2; assay: Cytotoxicity assay: inhibition of lysis by established CTL, 51Cr-labeled JY targets; format: cell-based, human; conditions: cell ratio 10:1, CTL line AJY

RENLRIALRY [B2702.75–84]
inhibition of lysis by established CTL ([1]; HLA-A2 specific CD8+CTL, peptides 100 μg/ml, 4 h assay): inhibited lysis | % Specific Lysis ([1]; peptide 25 μg/ml): 23.9% | % Specific Lysis ([1]; peptide 100 μg/ml): 18.6% | % Specific Lysis ([1]; peptide 200 μg/ml): 16.4% | CPM ± SD (3H-thymidine incorporation) (PBL from normal donors; peptide 50 μg/ml, Con A 1 mg/ml): 5,806 ± 721 CPM | CPM ± SD (3H-thymidine incorporation) (PBL from normal donors; peptide 50 μg/ml, Con A 3 mg/ml): 32,618 ± 1582 CPM | CPM ± SD (3H-thymidine incorporation) (PBL from normal donors; peptide 200 μg/ml, Con A 1 mg/ml): 2,322 ± 147 CPM | CPM ± SD (3H-thymidine incorporation) (PBL from normal donors; peptide 200 μg/ml, Con A 3 mg/ml): 20,905 ± 2047 CPM | blocking of differentiation of rat splenocytes into allospecific CTL in vitro (rat splenocytes): blocked the differentiation | rejection of transplants with peptide plus CsA (cardiac allograft): rejected similarly to allografts in animals treated with CsA alone | % Specific Lysis ([2]; peptide 25 μg/ml): 60.9% | % Specific Lysis ([2]; peptide 100 μg/ml): 43.7% | % Specific Lysis ([2]; peptide 200 μg/ml): 33.1%
